Assay results taken from PubChem BioAssay (NCI).
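Grown in 96-well plates, cells were treated for 48 hours with each compound at five concentrations. Insufficient inhibition: endpoint recorded as highest concentration tested. Here, GI50 denotes the concentration required for 50% inhibition of growth. At the TGI there is no net growth.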

Columns and labels:
Test in all cases: NCI tumour cell line growth inhibition, 48 h
SNB-75 CNS = system: SNB-75 CNS
UACC-257 melanoma = system: UACC-257 melanoma
HS 578T breast = system: HS 578T breast
OVCAR-8 ovarian = system: OVCAR-8 ovarian
A549 NSCLC = system: A549 NSCLC
NCI-H23 lung = system: NCI-H23 lung
SW-620 colon = system: SW-620 colon
HOP-62 NSCLC = system: HOP-62 NSCLC
HCT-116 colon = system: HCT-116 colon
A498 renal = system: A498 renal
COLO 205 colon = system: COLO 205 colon
RPMI-8226 leukemia = system: RPMI-8226 leukemia
T-47D breast = system: T-47D breast
OVCAR-5 ovarian = system: OVCAR-5 ovarian
OVCAR-3 ovarian = system: OVCAR-3 ovarian
HCT-15 colon = system: HCT-15 colon
786-0 renal = system: 786-0 renal
SR leukemia = system: SR leukemia
MCF7 breast = system: MCF7 breast
PC-3 prostate = system: PC-3 prostate
U251 CNS = system: U251 CNS
CCRF-CEM leukemia = system: CCRF-CEM leukemia
NCI-H460 lung = system: NCI-H460 lung
K-562 leukemia = system: K-562 leukemia
TK-10 renal = system: TK-10 renal
MALME-3M melanoma = system: MALME-3M melanoma
NCI-H522 lung = system: NCI-H522 lung
MDA-MB-435 = system: MDA-MB-435
RXF 393 renal = system: RXF 393 renal
KM12 colon = system: KM12 colon
BT-549 breast = system: BT-549 breast
LOX IMVI melanoma = system: LOX IMVI melanoma
SF-295 CNS = system: SF-295 CNS
MDA-MB-231 breast = system: MDA-MB-231 breast
SK-MEL-2 melanoma = system: SK-MEL-2 melanoma
UACC-62 melanoma = system: UACC-62 melanoma
OVCAR-4 ovarian = system: OVCAR-4 ovarian
SNB-19 CNS = system: SNB-19 CNS
HCC-2998 colon = system: HCC-2998 colon
UO-31 renal = system: UO-31 renal
M14 melanoma = system: M14 melanoma
CAKI-1 renal = system: CAKI-1 renal
MOLT-4 leukemia = system: MOLT-4 leukemia
HL-60(TB) leukemia = system: HL-60(TB) leukemia
SF-539 CNS = system: SF-539 CNS
SK-MEL-5 melanoma = system: SK-MEL-5 melanoma
EKVX NSCLC = system: EKVX NSCLC
NCI-H226 lung = system: NCI-H226 lung
NCI/ADR-RES ovarian = system: NCI/ADR-RES ovarian
SN12C renal = system: SN12C renal
SK-OV-3 ovarian = system: SK-OV-3 ovarian
IGROV1 ovarian = system: IGROV1 ovarian
ACHN renal = system: ACHN renal
HT29 colon = system: HT29 colon
SF-268 CNS = system: SF-268 CNS
DU-145 prostate = system: DU-145 prostate

`CCC(C)/C=C(C)/C=C/C(=O)c1c(O)c(-c2ccc(O)cc2)c[nH]c1=O` (configuration not stated) gave a GI50 (SNB-75 CNS) of 3.3 µM, a TGI (SNB-75 CNS) of 14.3 µM and a GI50 (UACC-257 melanoma) of 4.25 µM. It also gave a TGI (UACC-257 melanoma) of 16.4 µM, a GI50 (HS 578T breast) of 2.49 µM and a TGI (HS 578T breast) of 9.56 µM. The GI50 (OVCAR-8 ovarian) was 3.12 µM, the TGI (OVCAR-8 ovarian) was 13.9 µM and the GI50 (A549 NSCLC) was 4.3 µM. It also gave a TGI (A549 NSCLC) of 20.1 µM, a GI50 (NCI-H23 lung) of 3.62 µM and a TGI (NCI-H23 lung) of 17.6 µM. For the same molecule, the GI50 (SW-620 colon) was 3.5 µM, the TGI (SW-620 colon) was 11.9 µM and the GI50 (HOP-62 NSCLC) was 4.2 µM. For the same molecule, the TGI (HOP-62 NSCLC) was 16.3 µM, the GI50 (HCT-116 colon) was 3.39 µM and the TGI (HCT-116 colon) was 13.1 µM. It also gave a GI50 (A498 renal) of 2.03 µM, a TGI (A498 renal) of 16.4 µM and a GI50 (COLO 205 colon) of 7.2 µM. The TGI (COLO 205 colon) was 19.5 µM, the GI50 (RPMI-8226 leukemia) was 3.45 µM and the TGI (RPMI-8226 leukemia) was 17.6 µM. It also gave a GI50 (T-47D breast) of 3.22 µM, a TGI (T-47D breast) of 17 µM and a GI50 (OVCAR-5 ovarian) of 6.1 µM. For the same molecule, the TGI (OVCAR-5 ovarian) was 23.5 µM, the GI50 (OVCAR-3 ovarian) was 2.79 µM and the TGI (OVCAR-3 ovarian) was 9.33 µM. For the same molecule, the GI50 (HCT-15 colon) was 2.4 µM, the TGI (HCT-15 colon) was 12.6 µM and the GI50 (786-0 renal) was 4.33 µM. It also gave a TGI (786-0 renal) of 16.7 µM, a GI50 (SR leukemia) of 2.39 µM and a TGI (SR leukemia) of 6.49 µM. The GI50 (MCF7 breast) was 2.9 µM, the TGI (MCF7 breast) was 15 µM and the GI50 (PC-3 prostate) was 3.33 µM. The TGI (PC-3 prostate) was 14.4 µM, the GI50 (U251 CNS) was 3.01 µM and the TGI (U251 CNS) was 13 µM. For the same molecule, the GI50 (CCRF-CEM leukemia) was 2.58 µM, the TGI (CCRF-CEM leukemia) was 19.7 µM and the GI50 (NCI-H460 lung) was 3.04 µM. It also gave a TGI (NCI-H460 lung) of 8.82 µM, a GI50 (K-562 leukemia) of 3.39 µM and a TGI (K-562 leukemia) of 15.1 µM. The GI50 (TK-10 renal) was 4.32 µM, the TGI (TK-10 renal) was 15.3 µM and the GI50 (MALME-3M melanoma) was 2.36 µM. For the same molecule, the TGI (MALME-3M melanoma) was 14.1 µM, the GI50 (NCI-H522 lung) was 3.3 µM and the TGI (NCI-H522 lung) was 10.8 µM. It also gave a GI50 (MDA-MB-435) of 2.94 µM, a TGI (MDA-MB-435) of 11.2 µM and a GI50 (RXF 393 renal) of 1.96 µM. It also gave a TGI (RXF 393 renal) of 6.97 µM, a GI50 (KM12 colon) of 3.41 µM and a TGI (KM12 colon) of 12.4 µM. It also gave a GI50 (BT-549 breast) of 4.42 µM, a TGI (BT-549 breast) of 15.3 µM and a GI50 (LOX IMVI melanoma) of 3.49 µM. For the same molecule, the TGI (LOX IMVI melanoma) was 13.2 µM, the GI50 (SF-295 CNS) was 2.89 µM and the TGI (SF-295 CNS) was 13.7 µM. The GI50 (MDA-MB-231 breast) was 5.09 µM, the TGI (MDA-MB-231 breast) was 21.4 µM and the GI50 (SK-MEL-2 melanoma) was 3.53 µM. For the same molecule, the TGI (SK-MEL-2 melanoma) was 11 µM, the GI50 (UACC-62 melanoma) was 3.73 µM and the TGI (UACC-62 melanoma) was 15.9 µM. It also gave a GI50 (OVCAR-4 ovarian) of 4.13 µM, a TGI (OVCAR-4 ovarian) of 25.3 µM and a GI50 (SNB-19 CNS) of 5.43 µM. The TGI (SNB-19 CNS) was 19.8 µM, the GI50 (HCC-2998 colon) was 3.75 µM and the TGI (HCC-2998 colon) was 14.8 µM. The GI50 (UO-31 renal) was 2.16 µM, the TGI (UO-31 renal) was 14.3 µM and the GI50 (M14 melanoma) was 6.58 µM. It also gave a TGI (M14 melanoma) of 19.7 µM, a GI50 (CAKI-1 renal) of 2.74 µM and a TGI (CAKI-1 renal) of 12.6 µM. For the same molecule, the GI50 (MOLT-4 leukemia) was 2.73 µM, the TGI (MOLT-4 leukemia) was 15.1 µM and the GI50 (HL-60(TB) leukemia) was 2.43 µM. It also gave a TGI (HL-60(TB) leukemia) of 21.2 µM, a GI50 (SF-539 CNS) of 3.3 µM and a TGI (SF-539 CNS) of 12.5 µM. For the same molecule, the GI50 (SK-MEL-5 melanoma) was 4.29 µM, the TGI (SK-MEL-5 melanoma) was 16.7 µM and the GI50 (EKVX NSCLC) was 4.08 µM. The TGI (EKVX NSCLC) was 17.6 µM, the GI50 (NCI-H226 lung) was 8.07 µM and the TGI (NCI-H226 lung) was 22.9 µM. The GI50 (NCI/ADR-RES ovarian) was 3.53 µM, the TGI (NCI/ADR-RES ovarian) was 27.7 µM and the GI50 (SN12C renal) was 3.86 µM. For the same molecule, the TGI (SN12C renal) was 18.1 µM, the GI50 (SK-OV-3 ovarian) was 6.32 µM and the TGI (SK-OV-3 ovarian) was 29.4 µM. The GI50 (IGROV1 ovarian) was 2.59 µM, the TGI (IGROV1 ovarian) was 15 µM and the GI50 (ACHN renal) was 3.53 µM. For the same molecule, the TGI (ACHN renal) was 14.2 µM, the GI50 (HT29 colon) was 3.77 µM and the TGI (HT29 colon) was 14.6 µM. The GI50 (SF-268 CNS) was 3.19 µM, the TGI (SF-268 CNS) was 14 µM and the GI50 (DU-145 prostate) was 2.87 µM. The TGI (DU-145 prostate) was 11.1 µM.
